{
  "source": "patent US20230132823A1",
  "about": "“BI-FUNCTIONAL COMPOUNDS AND METHODS FOR TARGETED UBIQUITINATION OF ANDROGEN RECEPTOR” (MONTELINO THERAPEUTICS, INC., priority 2020, published 2023)",
  "key": {"[1]": {"biological_target": "T1, glucocorticoid receptor (GR) (Homo sapiens, UniProt P04150)", "T1 construct": "endogenous in cells; host or cells: 22Rv1", "T1 sequence (P04150 1-777)": "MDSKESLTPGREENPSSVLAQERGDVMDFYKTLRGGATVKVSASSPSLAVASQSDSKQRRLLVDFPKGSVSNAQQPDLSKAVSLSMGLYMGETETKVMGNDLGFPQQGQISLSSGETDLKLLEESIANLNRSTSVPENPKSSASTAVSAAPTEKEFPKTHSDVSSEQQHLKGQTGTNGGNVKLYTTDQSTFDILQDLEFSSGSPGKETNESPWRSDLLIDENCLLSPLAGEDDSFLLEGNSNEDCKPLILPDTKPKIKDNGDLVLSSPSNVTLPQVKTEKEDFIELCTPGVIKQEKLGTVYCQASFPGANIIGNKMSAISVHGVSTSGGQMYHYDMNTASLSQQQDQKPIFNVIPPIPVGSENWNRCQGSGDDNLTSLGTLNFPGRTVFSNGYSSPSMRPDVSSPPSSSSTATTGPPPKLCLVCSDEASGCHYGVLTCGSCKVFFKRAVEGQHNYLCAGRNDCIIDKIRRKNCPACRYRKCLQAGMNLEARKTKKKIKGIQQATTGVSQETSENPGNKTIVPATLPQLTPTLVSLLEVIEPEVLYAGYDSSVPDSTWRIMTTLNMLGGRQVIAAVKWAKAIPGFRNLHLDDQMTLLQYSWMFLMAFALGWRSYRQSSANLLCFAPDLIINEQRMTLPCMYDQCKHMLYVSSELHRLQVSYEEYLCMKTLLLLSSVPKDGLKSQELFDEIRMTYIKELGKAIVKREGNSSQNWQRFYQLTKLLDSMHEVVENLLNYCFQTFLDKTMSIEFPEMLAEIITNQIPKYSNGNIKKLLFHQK", "experiment": "Immunoblot of GR in 22Rv1 cells", "assay_type": "cell-based", "conditions": "22Rv1, 24 hours, up to 10 μM", "description": "(§1) Cell Culture. Human CaP cell lines, LNCaP, 22Rv1, VCaP, PC3, and DU145 are obtained from the American Type Culture Collection (ATCC) and maintained in the standard culture media: RPMI-1640 supplemented with 10% fetal bovine serum (FBS). LNCaP, 22Rv1, and VCaP are androgen-responsive cell lines, while PC3 and DU145 are not. To establish SAT resistant CaP cell lines, LNCaP, 22Rv1, and VCaP are treated continuously with 10-50 μM abiraterone, apalutamide, darolutamide, or enzalutamide. After 3-6 months, stable cell lines are established and designated as LNCaP-Abi^R, LNCaP-Apa^R, LNCaP-Daro^R, LNCaP-Enz^R, VCaP-Abi^R, VCaP-Apa^R, VCaP-Daro^R, VCaP-Enz^R, 22Rv1-Abi^R, 22Rv1-Apa^R, 22Rv1-Daro^R and 22Rv1-Enz^R. Unless otherwise specified, the standard culture media for these SAT-resistant cell lines included 10 μM of their respective SAT. For the proteasome inhibitor study, the inhibitors MG132 and Epoxomicin are used. The E3 ligase inhibitors Heclin, Nutlin 3a, Thalidomide, and VH298 are used. […] Mycoplasma contamination is also assessed using a PCR based detection system.\n(§2) Immunoblot Analysis. […] Cell lysates are then centrifuged and protein in the supernatant is quantified. […] Following the incubation with appropriate secondary antibody, immunoblots are analyzed using SuperSignal West Femto Maximum Sensitivity Substrate (ThermoFisher)."}, "[2]": {"tested_on": "progesterone receptor (PR) a and b", "experiment": "Immunoblot of PR in 22Rv1 cells", "assay_type": "cell-based, human", "conditions": "22Rv1, 24 hours, up to 10 μM", "description": "as §1, §2"}, "AR-FL": {"biological_target": "T2, AR-FL (Homo sapiens, UniProt P10275, DUP590-628/H875Y)", "T2 sequence (P10275 with tags, fused parts or gaps DUP590-628/H875Y)": "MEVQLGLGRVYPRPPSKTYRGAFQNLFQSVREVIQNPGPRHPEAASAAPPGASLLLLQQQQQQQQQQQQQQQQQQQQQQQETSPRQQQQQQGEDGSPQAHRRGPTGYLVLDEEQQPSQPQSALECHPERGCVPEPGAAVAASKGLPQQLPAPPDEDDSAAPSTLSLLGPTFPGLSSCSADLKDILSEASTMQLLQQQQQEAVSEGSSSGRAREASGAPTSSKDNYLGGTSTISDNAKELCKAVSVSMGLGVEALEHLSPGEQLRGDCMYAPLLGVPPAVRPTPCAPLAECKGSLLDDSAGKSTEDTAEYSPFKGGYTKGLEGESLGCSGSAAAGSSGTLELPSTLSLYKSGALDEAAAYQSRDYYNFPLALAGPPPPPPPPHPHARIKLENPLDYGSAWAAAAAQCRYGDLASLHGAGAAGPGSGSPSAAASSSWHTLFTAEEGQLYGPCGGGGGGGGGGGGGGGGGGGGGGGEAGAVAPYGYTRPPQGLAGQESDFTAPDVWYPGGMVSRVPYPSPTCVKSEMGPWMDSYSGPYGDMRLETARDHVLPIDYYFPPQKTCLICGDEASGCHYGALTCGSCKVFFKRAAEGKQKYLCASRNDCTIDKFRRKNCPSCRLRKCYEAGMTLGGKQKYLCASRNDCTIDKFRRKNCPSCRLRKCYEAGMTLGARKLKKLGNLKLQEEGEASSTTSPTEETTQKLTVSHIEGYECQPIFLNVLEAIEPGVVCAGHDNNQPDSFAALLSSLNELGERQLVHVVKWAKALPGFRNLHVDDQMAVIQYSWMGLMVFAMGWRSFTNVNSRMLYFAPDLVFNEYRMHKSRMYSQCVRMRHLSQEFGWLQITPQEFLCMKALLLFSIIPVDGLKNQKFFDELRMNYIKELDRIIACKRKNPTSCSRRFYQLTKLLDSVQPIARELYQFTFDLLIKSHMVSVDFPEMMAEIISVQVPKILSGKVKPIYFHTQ", "experiment": "Immunoblot of AR-FL polyubiquitination in 22Rv1 pretreated with MG132", "assay_type": "cell-based", "parameters": "decreased AR-V7 and AR-FL protein expression levels in 22Rv1 cells; endogenous in cells; host or cells: 22Rv1", "conditions": "22Rv1 pretreated with MG132 two hours; compound 1 μM", "description": "Immunoblot Analysis. CaP cells are collected and lysed with the lysis buffer (20 mM Tris-HCl (pH 7.5), 150 mM NaCl, 1 mM Na2EDTA, 1 mM EGTA, 1% Triton, 2.5 mM sodium pyrophosphate, 1 mM beta-glycerophosphate, 1 mM Na3VO4, and 1 μg/ml leupeptin) containing 1 mM phenylmethylsulfonyl fluoride (PMSF). Cell lysates are then centrifuged and protein in the supernatant is quantified. After separating 25-50 μg of protein using SDS-PAGE, samples are incubated with AR-V7, GR, PR, ERα, AR-FL, ubiquitin, or β-actin antibodies. For AR-V7, AR-FL, PR, GR, and ERα immunoblots, primary antibody is diluted 1:1000 in 5% skim milk. For the β-actin immunoblot, 1:10000 diluted primary antibody is used. All membranes are incubated overnight at 4° C. Following the incubation with appropriate secondary antibody, immunoblots are analyzed using SuperSignal West Femto Maximum Sensitivity Substrate (ThermoFisher).\nTo determine the ubiquitination status of AR proteins, 22Rv1 is pretreated with MG132 for two hours prior to adding Compound of Example 16 (at 1 μM)."}},
  "data": [
    {"smiles": "Cc1ncsc1-c1ccc([C@H](C)NC(=O)[C@@H]2C[C@@H](O)CN2C(=O)[C@@H](NC(=O)CCCCNC(=O)COc2c(-c3csc(N4CCOCC4)n3)ccc(F)c2F)C(C)(C)C)cc1", "note": "[Example 16, (2S,4R)-1-((S)-2-(5-(2-(2,3-difluoro-6-(2-morpholinothiazol-4-yl)phenoxy)acetamido)pentanamido)-3,3-dimethylbutanoyl)-4-hydroxy-N-((S)-1-(4-(4-methylthiazol-5-yl)phenyl)ethyl)pyrrolidine-2-carboxamide]", "values": [
      {"measurement": "effect on expression level of glucocorticoid receptor (GR)", "setting": "[1]", "value": "no visible effect"},
      {"measurement": "effect on expression level of progesterone receptor (PR) a and b", "setting": "[2]", "value": "no visible effect"},
      {"measurement": "time of detection of AR-FL polyubiquitination after treatment", "setting": "AR-FL", "value": 24, "unit": "h"}
    ]}
  ]
}
